This experiment has as its system BDF1 mice, P288 leukemia ip, survival T/C. As to the kind of experiment: NCI In Vivo Anticancer Drug Screen. Data for tumor model P288 Lymphocytic Leukemia (intraperitoneal) in B6D2F1 (BDF1) mice. The note with it: endpoint: survival time, mean or median, higher = longer survival. How it is done:
The antitumor activity of compounds was measured in mice bearing transplantable tumors. Survival or tumor size were measured and the results are expressed as the measurement made in the treated group (T) divided by the measurement made in the vehicle treated control group (C). The tumor model used in this assay is P288 Lymphocytic Leukemia (intraperitoneal) in B6D2F1 (BDF1) mice

[1] abbreviates: dose: 125.0 mg/kg/injection, schedule: Q01DX Z (ip), vehicle: saline.
Where [2] appears, read: dose: 25.0 mg/kg/injection, schedule: Q01DX010 (ip), vehicle: saline.
Where [3] appears, read: dose: 50.0 mg/kg/injection, schedule: Q01DX010 (ip), vehicle: saline.
The mark [4] stands for this setting: dose: 100.0 mg/kg/injection, schedule: Q01DX010 (ip), vehicle: saline.
Where [5] appears, read: dose: 200.0 mg/kg/injection, schedule: Q01DX010 (ip), vehicle: saline.

Where “and” joins values, the source holds several entries; their conditions need not be identical. Equal values may be shown once. Toxic doses and inconclusive results are not listed.

For twelve compounds, T/C results are on record in PubChem BioAssay AID216 (DTP/NCI, 2004).

For the compound `O=P1(N(CCCl)CCCl)NCCCO1` (stereo not drawn), the T/C runs as follows: (dose: 11.3 mg/kg/injection, schedule: Q01DX010 (ip), vehicle: saline) 119 % of control; (dose: 12.5 mg/kg/injection, schedule: Q01DX Z (ip), vehicle: saline) 102 % of control and 106 % of control; (dose: 25.0 mg/kg/injection, schedule: Q01DX Z (ip), vehicle: saline) 113 % of control and 116 % of control; (dose: 45.0 mg/kg/injection, schedule: Q01DX010 (ip), vehicle: saline) 150 % of control and 198 % of control; (dose: 50.0 mg/kg/injection, schedule: Q01DX Z (ip), vehicle: saline) 112 % of control and 113 % of control; (dose: 62.5 mg/kg/injection, schedule: Q01DX Z (ip), vehicle: saline) 124 % of control. For the same compound, the T/C reads like this: (dose: 90.0 mg/kg/injection, schedule: Q01DX010 (ip), vehicle: saline) 158 % of control; (dose: 100.0 mg/kg/injection, schedule: Q01DX Z (ip), vehicle: saline) 152 % of control; under setting [1], 113 % of control; (dose: 180.0 mg/kg/injection, schedule: Q01DX010 (ip), vehicle: saline) 91 % of control; (dose: 200.0 mg/kg/injection, schedule: Q01DX Z (ip), vehicle: saline) 86 % of control and 95 % of control.
Turning to `COc1ccc2c(c1OC)C(=O)O[C@@H]2[C@H]1c2c(cc3c(c2OC)OCO3)CCN1C`, the T/C is 112 % of control (dose: 3.9 mg/kg/injection, schedule: Q01DX010 (ip), vehicle: saline); 112 % of control (dose: 7.8 mg/kg/injection, schedule: Q01DX010 (ip), vehicle: saline); 106 % of control (dose: 31.3 mg/kg/injection, schedule: Q01DX010 (ip), vehicle: saline).
For `CCCCCCCCCCCCNCCCCCCCCCCCC`, the T/C is 108 % of control (dose: 7.5 mg/kg/injection, schedule: Q01DX Z (ip), vehicle: carboxymethylcellulose (CMC)); 106 % of control (dose: 15.0 mg/kg/injection, schedule: Q01DX Z (ip), vehicle: carboxymethylcellulose (CMC)); 110 % of control (dose: 30.0 mg/kg/injection, schedule: Q01DX Z (ip), vehicle: carboxymethylcellulose (CMC)); 116 % of control (dose: 60.0 mg/kg/injection, schedule: Q01DX Z (ip), vehicle: carboxymethylcellulose (CMC)).
Turning to `c1ccc(CNc2ncnc3[nH]ncc23)cc1`, the T/C reads like this: (dose: 1.95 mg/kg/injection, schedule: Q01DX Z (ip), vehicle: carboxymethylcellulose (CMC)) 91 % of control; (dose: 3.9 mg/kg/injection, schedule: Q01DX Z (ip), vehicle: carboxymethylcellulose (CMC)) 97 % of control; (dose: 7.8 mg/kg/injection, schedule: Q01DX Z (ip), vehicle: carboxymethylcellulose (CMC)) 90 % of control; (dose: 8.0 mg/kg/injection, schedule: Q01DX010 (ip), vehicle: saline) 121 % of control and 93 % of control; (dose: 16.0 mg/kg/injection, schedule: Q01DX010 (ip), vehicle: saline) 112 % of control and 114 % of control; (dose: 32.0 mg/kg/injection, schedule: Q01DX010 (ip), vehicle: saline) 118 % of control.
As to `CSc1ncnc2nc[nH]c12`, the T/C is 105 % of control (dose: 6.25 mg/kg/injection, schedule: Q01DX Z (ip), vehicle: carboxymethylcellulose (CMC)); 101 % of control (dose: 12.5 mg/kg/injection, schedule: Q01DX Z (ip), vehicle: carboxymethylcellulose (CMC)); 90 % of control under setting [2]; 101 % of control (dose: 25.0 mg/kg/injection, schedule: Q01DX Z (ip), vehicle: carboxymethylcellulose (CMC)); 86 % of control and 90 % of control under setting [3]; 113 % of control and 88 % of control (dose: 50.0 mg/kg/injection, schedule: Q01DX Z (ip), vehicle: carboxymethylcellulose (CMC)). Also, the T/C by setting is: under setting [4], 100 % of control; under setting [5], 90 % of control and 100 % of control.
As to `O=C(Nc1ccc(NC(=O)Nc2cccc(C3=NCCN3)c2)cc1)Nc1cccc(C2=NCCN2)c1`, the T/C runs as follows: (dose: 60.0 mg/kg/injection, schedule: Q01DX010 (ip), vehicle: saline) 163 % of control and 168 % of control; (dose: 120.0 mg/kg/injection, schedule: Q01DX010 (ip), vehicle: saline) 173 % of control and 210 % of control; (dose: 240.0 mg/kg/injection, schedule: Q01DX010 (ip), vehicle: saline) 221 % of control; (dose: 480.0 mg/kg/injection, schedule: Q01DX010 (ip), vehicle: saline) 152 % of control.
For `CCN(CC)CCNc1ccc(C)c2sc3ccccc3c(=O)c12`, the T/C by setting is: under setting [2], 110 % of control; under setting [3], 205 % of control; (dose: 51.0 mg/kg/injection, schedule: Q01DX010 (ip), vehicle: saline) 155 % of control; under setting [4], 180 % of control.
Regarding `c1ccc(CCSc2ncnc3nc[nH]c23)cc1`, the T/C (dose: 62.5 mg/kg/injection, schedule: Q01DX010 (ip), vehicle: saline) was 100 % of control; the T/C (dose: 125.0 mg/kg/injection, schedule: Q01DX010 (ip), vehicle: saline) was 100 % of control; the T/C (dose: 250.0 mg/kg/injection, schedule: Q01DX010 (ip), vehicle: saline) is 122 % of control and 100 % of control; the T/C (dose: 500.0 mg/kg/injection, schedule: Q01DX010 (ip), vehicle: saline) is 105 % of control and 122 % of control.
As for `CC(=O)N(C)C`, the T/C was 103 % of control (dose: 31.0 mg/kg/injection, schedule: Q01DX Z (ip), vehicle: saline); 100 % of control under setting [1]; 93 % of control (dose: 250.0 mg/kg/injection, schedule: Q01DX Z (ip), vehicle: saline); 88 % of control (dose: 500.0 mg/kg/injection, schedule: Q01DX Z (ip), vehicle: saline); 88 % of control (dose: 2000.0 mg/kg/injection, schedule: Q01DX Z (ip), vehicle: saline).
For the compound `C[C@]12CC[C@H](OC3OC(CO)C(O)C(O)C3O)C[C@H]1CC[C@@H]1[C@@H]2CC[C@]2(C)[C@@H](C3=CCOC3=O)CC[C@]12O` (stereo partly drawn), the T/C runs as follows: (dose: 0.12 mg/kg/injection, schedule: Q01DX Z (ip), vehicle: saline) 97 % of control; (dose: 0.25 mg/kg/injection, schedule: Q01DX Z (ip), vehicle: saline) 97 % of control; (dose: 0.5 mg/kg/injection, schedule: Q01DX Z (ip), vehicle: saline) 101 % of control and 98 % of control; (dose: 1.0 mg/kg/injection, schedule: Q01DX Z (ip), vehicle: saline) 104 % of control and 110 % of control; (dose: 2.0 mg/kg/injection, schedule: Q01DX Z (ip), vehicle: saline) 105 % of control and 107 % of control; (dose: 4.0 mg/kg/injection, schedule: Q01DX Z (ip), vehicle: saline) 121 % of control and 94 % of control.
For `CCN(CC)C(=S)S`, the T/C (dose: 125.0 mg/kg/injection, schedule: Q01DX Z (ip), vehicle: other) is 97 % of control; the T/C (dose: 250.0 mg/kg/injection, schedule: Q01DX Z (ip), vehicle: other) was 112 % of control; the T/C (dose: 500.0 mg/kg/injection, schedule: Q01DX Z (ip), vehicle: other) is 104 % of control; the T/C (dose: 1000.0 mg/kg/injection, schedule: Q01DX Z (ip), vehicle: other) was 104 % of control.
On to `O=[n+]1c2c(n([O-])c3ccccc31)-c1cccc3cccc-2c13`, for which the T/C was 88 % of control under setting [2]; 94 % of control and 100 % of control under setting [3]; 100 % of control under setting [4]; 88 % of control and 100 % of control under setting [5].
